We go through 18 compounds from ChEMBL document CHEMBL6153082, “Macrocyclization as a Strategy for Kinetic Solubility Improvement: A Comparative Analysis of Matched Molecular Pairs” (J Med Chem, 2025).

In brackets after ≈: the same amount, converted by molar mass.

Data set [1] can be described thus: Kinetic aqueous solubility of compound at pH 7.4 at 5 to 300 uM. The data set is classed as physicochemical. The note with it: dose 5-300 µM, read-out: Kinetic_solubility.
Data set [2] is described as follows: Apparent permeability across apical to basolateral side in MDCK cells. The data set is classed as ADME, cell-based, Canis lupus familiaris. The note with it: dog.
The nature of data set [3]: Efflux ratio in dog MDCK cells. The data set is classed as ADME, cell-based, Canis lupus familiaris.
Data set [4] in a line: Lipophilicity, logD of the compound in n-octanol/aqueous at pH 7.4 incubated overnight by UPLC analysis. The data set is classed as physicochemical.
Data set [5] is described as follows: Unbound fraction in mouse microsome incubated for 4 hrs by LC-MS/MS analysis. It counts as ADME. The note with it: microsomes.
Data set [6] is described as follows: Solubility of compound at pH 7.4. The note with it: buffer. It counts as physicochemical.
Data set [7] can be described thus: Metabolic stability in mouse liver microsomes assessed as half life in presence of NADPH incubated for 30 mins by LC-MS/MS analysis. The data set is classed as ADME, Microsome. A general note: Microsomes from liver hold many membrane-bound enzymes, among them those of drug oxidation.
The nature of data set [8]: Apparent permeability across basolateral to apical side in MDCK cells. It counts as ADME, cell-based, Canis lupus familiaris. The note with it: dog.
Data set [9] is described as follows: Dissociation constant, pKa of the compound by potentiometric titration analysis. The data set is classed as physicochemical.

As a reminder, the logD is lipophilicity at a set pH, counting ionised and neutral species. Lower therefore signals lower lipophilicity. As usually defined, the fraction unbound is free concentration divided by total concentration. Higher therefore signals weak binding. The solubility is the dissolved amount per volume that the medium holds. A low value points to a poorly soluble substance. As a reminder, the half-life is the time in which the quantity being followed falls by half. As a reminder, the pKa is the negative logarithm of the acid dissociation constant. Lower therefore signals a stronger acid or weaker base. The term Papp A→B denotes how fast a substance crosses the layer from the apical side. For orientation: efflux ratio means a quotient of directional permeabilities that is used to spot active efflux. As usually defined, the Papp B→A is how fast a substance crosses the layer from the basolateral side.

In the case of `C=CCOC(=O)[C@@H]1CCCCN1C(=O)[C@H](c1cc(OC)c(OC)c(OC)c1)C1CCCCC1`, in data set [1], the solubility kinetic turned out to be 12 µM (≈ 5.51 µg/mL).
As for `CCOc1ccccc1C(=O)N1CCN(C2CCCC2)C[C@@H]1C(=O)NC[C@@H]1CCCCO1`, the Papp in data set [2] is on record as 29 10^-6 cm/s; in data set [8] it was 44 10^-6 cm/s. The Ratio in data set [3] is reported as 12. The compound also yielded a logD in data set [4] of 2.5. The compound further returned a fraction unbound at 4 h in [5] of 0.68. The compound further showed a solubility in data set [6] of 170 µM (≈ 75.4 µg/mL). The half-life in data set [7] turned out to be 1 min.
For `COc1cc2cc(c1OC)OC/C=C/COC(=O)[C@@H]1CCCCN1C(=O)[C@H]2C1CCCCC1`, the solubility kinetic in [1] stood at 103 µM (≈ 47.1 µg/mL).
`C=CCOc1ccccc1CN(CC(=O)N1CCC(CC(=O)NC2CC2)CC1)Cc1ccccc1`: the figures for the Papp in data set [2] and in data set [8] were 8 10^-6 cm/s and 33 10^-6 cm/s, respectively. Moreover, the Ratio in data set [3] was found to be 66. In addition, the logD in data set [4] amounted to 3.8. The compound also showed a fraction unbound at 4 h in data set [5] of 0.57. Further, in data set [6], the concentration in solution (solubility) came to 83.5 µM (≈ 39.7 µg/mL). Moreover, the half-life in [7] is 1 min.
`CCOc1ccccc1C(=O)N1CCN(Cc2ccccc2)C[C@@H]1C(=O)NC[C@H]1CCCCO1`: the Papp is 32 10^-6 cm/s in data set [2] and 49 10^-6 cm/s in data set [8]. The Ratio in data set [3] was determined as 69. Also, in data set [4], the logD was 3.2. Moreover, the fraction unbound at 4 h in [5] turned out to be 1. The compound further had a solubility in data set [6] of 287 µM (≈ 134 µg/mL). Further, in [7], the half-life was 120 min. Moreover, the pKa in data set [9] was 7.4.
As to `CCC[C@H]1NC(=O)c2cccnc2OCCOCCN(C2CCCC2)CC2CCN(CC2)C1=O`, the Papp A→B in data set [2] came to 10 ×10⁻⁶ cm/s. Moreover, the efflux ratio in [3] is 5.4. In data set [4], this compound came in with a logD of 1.5. In data set [6], this compound returned a solubility of 303 µM (≈ 143 µg/mL). For the same compound, the half-life in data set [7] was 7.4 min. Moreover, the Papp B→A in data set [8] stood at 56 ×10⁻⁶ cm/s.
As to `CCOc1ccccc1C(=O)N1CCN(C2CCCC2)C[C@@H]1C(=O)NC[C@H]1CCCCO1`, the Papp is 32 10^-6 cm/s in [2] and 50 10^-6 cm/s in data set [8]. The Ratio in [3] was found to be 29. The same compound had a logD in data set [4] of 2.5. Also, the fraction unbound at 4 h in [5] was found to be 0.68. The concentration in solution in data set [6] (solubility) was 303 µM (≈ 134 µg/mL). The half-life in data set [7] came to 120 min.
For `COc1cc2cc(c1OC)O[C@@H](C)CCn1cc(nn1)CCCCOC(=O)[C@@H]1CCCCN1C(=O)[C@H]2C1CCCCC1`, the solubility kinetic in data set [1] was 100 µM (≈ 58.3 µg/mL).
`CCC[C@@H](NC(=O)c1cccnc1OC)C(=O)N1CCC(CCN(CCOC)C2CCN(C)CC2)CC1`: the figures for the Papp in data set [2] and in data set [8] were 93 10^-6 cm/s and 88 10^-6 cm/s, respectively. Also, the Ratio in data set [3] came out at 38. This compound returned a logD in [4] of 0.8. In addition, the fraction unbound at 4 h in data set [5] is 0.77. Also, in data set [6], the solubility was found to be 303 µM (≈ 157 µg/mL). Moreover, the half-life in data set [7] is 103 min.
Take `C=CCOc1ccccc1CN(CC(=O)N1CCC(CC(=O)NC2CC2)CC1)C1CCN(C)CC1`: the Papp was 1 10^-6 cm/s in data set [2] and 11 10^-6 cm/s in [8]. In addition, in data set [3], the Ratio came to 2. For the same compound, the logD in data set [4] came out at 0.5. Also, in [5], the fraction unbound at 4 h is 0.76. Further, the concentration in solution in [6] (solubility) was 244 µM (≈ 118 µg/mL). In addition, the half-life in data set [7] amounted to 120 min.
Consider `CCCc1cn(CCCOc2cc([C@@H](C(=O)N3CCCC[C@H]3C(=O)OC)C3CCCCC3)cc(OC)c2OC)nn1`, for which the solubility kinetic in data set [1] amounted to 65 µM (≈ 37.1 µg/mL).
With `C=CCOc1ccccc1CN(CC(=O)N1CCC(CC(=O)NC2CC2)CC1)C1CCCC1`, the Papp in data set [2] was 3 10^-6 cm/s; in data set [8], 68 10^-6 cm/s. Further, the Ratio in data set [3] was 4. Moreover, in data set [4], the logD is 1.8. Further, in [5], the fraction unbound at 4 h came to 1. Moreover, the solubility in data set [6] came to 192 µM (≈ 87.1 µg/mL). Further, the half-life in data set [7] was found to be 5 min.
Turning to `CCCOC(=O)[C@@H]1CCCCN1C(=O)[C@H](c1cc(OC)c(OC)c(OC)c1)C1CCCCC1`, in [1], the solubility kinetic came to 45 µM (≈ 20.8 µg/mL).
In the case of `CCOc1ccccc1C(=O)N1CCN(Cc2ccccc2)C[C@@H]1C(=O)NC[C@@H]1CCCCO1`, the Papp is 33 10^-6 cm/s in data set [2] and 49 10^-6 cm/s in data set [8]. For the same compound, the Ratio in data set [3] was 21. Further, the logD in data set [4] is 3.2. In addition, the fraction unbound at 4 h in data set [5] is 1. In addition, the concentration in solution in data set [6] (solubility) was 237 µM (≈ 110 µg/mL). Besides, in [7], the half-life worked out at 1 min. The compound further had a pKa in [9] of 7.4.
As to `COc1cc2cc(c1OC)OCCCn1cc(nn1)CCCCOC(=O)[C@@H]1CCCCN1C(=O)[C@H]2C1CCCCC1`, the solubility kinetic in data set [1] is 100 µM (≈ 56.9 µg/mL).
The same measure, in the same setting: with `COc1cc2cc(OC)c1OCCCCOC(=O)[C@@H]1CCCCN1C(=O)[C@H]2C1CCCCC1` the figure was 137 µM (≈ 63 µg/mL); with `CCCc1cn(CC[C@H](C)Oc2cc([C@@H](C(=O)N3CCCC[C@H]3C(=O)OC)C3CCCCC3)cc(OC)c2OC)nn1`, 65 µM (≈ 38 µg/mL).
For `C=CCOc1ccccc1CN(CC(=O)N1CCC(CC(=O)NC2CC2)CC1)C(C)C`, the Papp is on record as 2 10^-6 cm/s in data set [2] and 57 10^-6 cm/s in data set [8]. In addition, the Ratio in data set [3] is reported as 2. For the same compound, in [4], the logD worked out at 1. Besides, the fraction unbound at 4 h in data set [5] amounted to 1. Besides, in data set [6], the concentration in solution (solubility) was 167 µM (≈ 71.4 µg/mL). Moreover, the half-life in [7] is 16 min.
